Legend:
HL-60 cells [1] = assay: NeuAz expression by SPAAC with DBCO-Cy5 and flow cytometry, competition with 1c; assay type: cell-based, human; conditions: 50 μM with 1c 50 μM, 24 h
Protocol: Estimation of NeuAz expression by 1c in the presence of peracetylated ManNAc analogues: Jurkat cells (3.0×10^5 cells/mL in 3.0 mL per well in 6-well plates) were incubated with (i) D, (ii) 1a, 1b, 1c, or 1d alone (50 mM) or (iii) 1a, 1b, or 1d (50 mM) in combination with 1c (50 mM). After 24 h, cells were harvested, washed using FSB, aliquoted to 5.0×10^5 cells per sample, and processed as mentioned above for estimation of NeuAz expression using DBCO-Cy5 ([…]). Experiments using HL-60 cells were performed using the same procedure.
Having confirmed metabolic acceptability in Jurkat cells, the compounds were tested on HL-60 (human acute myeloid leukemia) cells which are a reliable model for neutrophil adhesion. The effect on competitive suppression of NeuAz expression was studied using 1c as a reporter. HL-60 cells were treated with 1c either alone (50 μM) or in combination with ManNAc analogues (50 μM), including the straight chain derivatives, for 24 h followed by DBCO-Cy5 ligation. […] The decreasing ability of linear alkyl moieties (1d-1g), as a function of chain length, for suppression of NeuAz expression is in contrast to the cycloalkyl moieties. […] Similarly, 1a induced a reduction of 40% compared to only a 15% reduction by 1f.

HL-60 cells [2] = assay: Total and glycoside bound sialic acids by periodate-resorcinol assay; assay type: cell-based, human; conditions: 100 μM, 48 h
Protocol: Total sialic acids were measured following reported procedures. HL-60 cells (3.0×10^5 cells/mL in 10 mL complete medium in 10 cm diameter Petri dishes) were incubated with D, 1a, 1b, 1c, 1d, 1e, 1f, 1g, 2a, or 2b (100 mM each), along with untreated (U) controls. After 48 h, cells were harvested, washed with PBS (3×5.0 mL; 3000×g, for 2.0 min), aliquoted to 2×10^6 cells per sample and resuspended in PBS (150 mL) in 1.5 mL microcentrifuge tubes. Cells were lyzed by three freeze-thaw cycles and the total lysates were subjected to periodate-resorcinol assay. Briefly, lysates (150 mL) were treated with 0.4 M aqueous periodic acid (6.67 mM) or (2.5 mL) and incubated either on ice for 15 min (for measurement of total sialic acids) or at 37° C. for 1.0 h (for measurement of glycoconjugate bound sialic acids). About 10 mL of reagent cocktail was prepared using 6% w/v of aqueous resorcinol (1.0 mL), 2.5 mM copper (II) sulfate (1.0 mL), 44% of concentrated hydrochloric acid (4.4 mL), and water (3.6 mL). The mixture was then treated with the reagent cocktail (250 mL per sample), boiled at 100° C. for 10 min, rapidly quenched in an ice-bath and treated with tert-butanol (250 mL). The contents were centrifuged and the supernatants were aliquoted (200 mL) into 96-well plates and the absorbance at 630 nm was measured. At least three replicates were prepared for each condition.

HL-60 cells [3] = assay: Cell surface sialyl-Lewis-X (CD15s) by anti-CD15s (CSLEX1) flow cytometry; assay type: cell-based, human; conditions: 50 μM, 24 h
Protocol: Effect of ManNAc analogues on the expression of sialyl-Lewis-X and Lewis-X: HL-60 cells (3.0×10^5 cells/mL in 2.0 mL complete medium in 6 well plate) were treated with D (vehicle), 1a, 1b, 1c, 1d, 1e, 1f, or 1g (50 PM), along with untreated (U) control. After 24 h, cells were harvested and washed with PBS (3×0.5 mL, 3000×g, 3.0 min at room temperature). Prior to last wash, cells were counted using Z2 coulter counter and aliquoted at 2.5×10^5 cells per sample and stained with either mouse anti-human CD15s (CSLEX1) (1.25 μg/mL) or mouse anti-human CD15 (HI98) (2.5 μg/mL) in HEPES/CaCl2) buffer (30 mM HEPES, 110 mM NaCl, 10 mM KCl, 2 mM MgCl2, 10 mM glucose, 1.5 mM CaCl2) containing 0.1% bovine serum albumin, pH 7.3) (total volume of 100 μL) for 30 min at 4° C. Cells were washed with HEPES/CaCl2 buffer (2×0.5 mL) and stained with AlexaFluor488-conjugated anti-mouse IgM (2.5 μg/mL) (for both CD15s and CD15) in 100 μL HEPES/CaCl2 for 30 min at 4° C. Cells were washed with HEPES/CaCl2 buffer (2×0.5 mL), resuspended in PBS (0.2 mL), treated with PI (2.5 μg/ml) and analysed by BD FACSVerse. Samples treated with (i) isotype antibodies followed by secondary antibody and (ii) secondary antibody alone were prepared as controls. Single Cells were gated for PI-negative population for 10,000 events and analysed by flow cytometry. Two replicate samples were prepared for each condition and each sample was counted twice. Three independent experiments were performed. Data was analysed using FlowJo V10. For plotting graph and calculation of significant probability ‘p’ values, two-way ANOVA with Dunnett's multiple comparison tests was employed in GraphPad Prism 8.
Time course of CD15s expression: HL-60 cells (3.0×10^5 cells/mL in 2.5 mL complete medium in 6-well plates) were incubated with D, 1a, 1b, or 1d (50 mM). At each time point, from day 1 to day 6, the cells were harvested from the entire contents of the well, washed, and aliquoted to 5.0×10^5 cells per sample, and immuno-stained using anti-CD15s (CSLEX1) antibody as mentioned above. On day 3, 4, and 5 complete media (1.0 mL) was added to each remaining well in order to compensate for media exhaustion. No contents were removed from the well during the period.

HL-60 cells [4] = assay: Western blot of total lysates for sLeX (CSLEX1) epitopes; assay type: cell-based, human; conditions: HL-60 total lysates; 50 μM, 72 h
Protocol: Effect of ManNAc analogues on expression of CD15s epitopes: HL-60 cells (3.0×10^5 cells/mL in 10 mL complete medium in 10 cm diameter petri dishes) were incubated with D, 1a, 1b, 1d, 1e, 1f, or 1g (50 mM), along with untreated (U) controls. After 72 h, cells were harvested, washed with PBS (3×5.0 mL), and lysed in RIPA buffer (10^7 cells in […]), containing protease inhibitor cocktail (PIC, 1:100). Protein concentration of the soluble fraction was estimated using the Bradford assay. Proteins from total lysates were resolved by 7.5% SDS-PAGE and blotted onto nitrocellulose membrane (constant current of 250 mA for 3.0 h at 4° C.). Membranes were blocked using non-fat milk (NFM) (5.0% w/v) in PBS and incubated with primary antibodies (5.0 mL PBS containing 5.0% NFM) overnight at 4° C. Membranes were washed with 0.1% PBS-T (0.1% v/v tween-20 in PBS; 3×5.0 mL, five min each at room temperature) followed by incubation with appropriate fluorophore or horse radish peroxidase (HRP) conjugated secondary antibodies for 1.0 h at room temperature. Membranes were washed with 0.1% PBS-T (3×5.0 mL, five min each) and then either directly scanned using Amersham Typhoon fluorescence scanner or developed on photographic films after treatment with enhanced chemiluminescence reagents. At least two independent replicate experiments were performed for all the blots.
The primary and secondary antibodies employed, along with dilution and stock concentration, are given below: Primary antibodies: Anti-CD15s (CSLEX1; IgM, dilution 1:5000; stock concentration 0.5 mg/mL) Anti-CLA (HECA452; IgM, dilution 1:1000, stock concentration 0.5 mg/mL) […] (AC15, IgG, dilution 1:20000, stock concentration 2.2 mg/mL); and Secondary Antibodies: AlexaFluor488-conjugated anti-mouse IgM (1:10000, stock concentration 2.0 mg/mL) AlexaFluor488-conjugated anti-rat IgM (1:10000, stock concentration 0.5 mg/mL) HRP-conjugated anti-mouse IgG (1:10000, stock concentration 0.8 mg/mL) Cy5-conjugated donkey anti-mouse IgG (1:10000, stock concentration 1.4 mg/mL) AlexaFluorplus488-conjugated anti-mouse IgG (1:10000, stock conc. 2.0 mg/mL).

[5] = system: neural cell adhesion molecules (NCAM); conditions: cited from earlier work
HL-60 cells [6] = assay: Cell density as a measure of proliferation/cytotoxicity; assay type: cell-based, human; conditions: 100 μM, cell density measured at 24, 48, and 72 h
HL-60 cells [7] = assay: Cell surface sialyl-Lewis-X (CD15s) by anti-CD15s (CSLEX1) flow cytometry; assay type: cell-based, human; conditions: single dosage 50 μM
HL-60 cells [8] = conditions: 10 mM; cited from earlier work

SMILES	NeuAz expression with respect to 1c alone (100%) (HL-60 cells [1])	reduction of NeuAz expression with respect to controls (HL-60 cells [1])	suppression of NeuAz expression (in words) (HL-60 cells [1])	glycoside bound sialic acid levels (in words) (HL-60 cells [2])	increase in binding of CSLEX1 antibody (sLeX), in words (HL-60 cells [3])	sLeX (CSLEX1) bands between 150-100 kDa in western blot (HL-60 cells [4])	inhibition of polysialic acid attachment to NCAM [5]	decrease in total sialic acid levels (HL-60 cells [2])	ratio of total sialic acids to glycoside bound sialic acids vs untreated cells (HL-60 cells [2])	decrease in cell density (HL-60 cells [6])	increase in binding of CSLEX1 antibody (sLeX) compared to controls (HL-60 cells [3])	maximum increase in sLeX levels on day 2 (HL-60 cells [7]; day 2)	sLeX levels by day 6 (in words) (HL-60 cells [7]; day 6)	day of peak sLeX expression (HL-60 cells [7]; time course day 1 to day 6)	expression of sLeX epitopes (KM93 antibody), particularly on PSGL-1/CD162 (HL-60 cells [8])
CCCC(=O)N[C@@H]1[C@@H](OC(C)=O)O[C@H](COC(C)=O)[C@@H](OC(C)=O)[C@@H]1OC(C)=O [Compound 1f, 1,3,4,6-tetra-O-acetyl-2-(1-butanoyl)amino-2-deoxy-α-D-mannopyranose]	85%	15%	moderate suppression	comparable to untreated cells	three-fold increase	moderate increase	efficient inhibitor								
CCCCC(=O)N[C@@H]1C(OC(C)=O)O[C@H](COC(C)=O)[C@@H](OC(C)=O)[C@@H]1OC(C)=O (stereo partly drawn) [Compound 1g, 1,3,4,6-tetra-O-acetyl-2-(1-pentanoyl)amino-2-deoxy-D-mannopyranose]	90%	10%	mild effect			moderate increase		0.7 fold	lower ratios	~10%	~2.5 fold	2.2 fold	returned to normal levels	2 days	
CCC(=O)N[C@@H]1C(O)O[C@H](CO)[C@@H](O)[C@@H]1O (stereo partly shown) [ManNProp]															enhanced expression of sLeX epitopes

From US20240002424A1, “HEXOSAMINE COMPOUNDS AND METHODS THEREOF” (National Institute of Immunology, priority 2021, published 2024)
